What was measured:
[1] = Relaxivity (1.4 T) in MOPS and MOPS/CO3^2−; format: physicochemical; settings: intermolecular series 5a-c, 37° C.
Procedure: While measurements of q indicate how well an agent can restrict water access to the GdIII center, the most important property for a bio-activated contrast agent is the change in relaxivity upon enzymatic cleavage (r1). To evaluate the signal change in the presence of CO32−, relaxivities of the intermolecular activated agents were measured in two different buffer conditions, the non-coordinating buffer MOPS and MOPS/CO32−.
T1 relaxation times were obtained for 5a-c (FIG. 13), and complexes 10a-d (FIG. 14), and 11 at 37° C. at 60 MHz (1.4 T) on a Bruker mq60 minispec spectrometer (Billerica, MA). Three 1 mM solutions of each complex were prepared in four different buffer conditions 1) 10 mm 3-(N-morpholino)propanesulfonic acid (MOPS), 100 mm NaCl, pH 7.4, 2) 10 mm MOPS, 24 mm NaHCO3, 100 mm NaCl, pH 7.4, 3) Dulbecco's Phosphate Buffer (DPBS) pH 7.3 Life Technologies, and 4) b-galactosidase enzyme assay buffer, 200 mm sodium phosphate, 100 mm bmercaptoethanol, 2 mm MgCl2, pH 7.3 (FIG. 15). Three sets of five serial dilutions (about 1 mm, 0.5 mm, 0.25 mm, 0.125 mm and 0.0625 mm) were prepared for each complex. T1 relaxation rates were measured using an inversion recovery pule sequence (t1_ir_mb) with a 10 ms first pulse separation, recycle delay and final pulse separation ≥5 T1. T1 relaxation rates were plotted as a function of GdIII concentrations as determined by ICP-MS, r1/r2 was obtained from linear fit of concentration vs. T1 as described in Equation (1).

β-galactosidase = target: T1, β-galactosidase (Escherichia coli, UniProt P00722); format: biochemical; settings: 25° C., TES buffer, 1 mM MgCl2, 150 mM NaCl; for Kcat: 420 nm; for Km: nitro-phenol absorbance 420 nm
T1 construct: purchased Sigma Aldrich
Procedure: Catalytic efficiencies for five substrates, 5a-c, ONPG, and PNPG were evaluated by UV-vis spectroscopy (Table 3). ONPG and PNPG are literature standards that were used to ensure the assay was performed adequately and to serve as benchmarks of activation kinetics in the absence of the GdIII chelate. […] Catalytic efficiency is directly related to the imaging window wherein activation to the r1, on state is competing with clearance.
Enzyme activation kinetics were determined by the method of initial rates for compounds 5a-c via the appearance of the nitrophenol byproduct of activation. The characteristic absorption was monitored at 420 nm. Concentrations of substrate used were 0, 0.05, 0.1, 0.12, 0.15, 0.3, 0.4, 0.5, 0.75, 1, and 2 mM. Each concentration was measured in triplicate and exact concentrations were measured by ICP-MS (see Table 2).

[2] = Terbium(III) luminescence: determination of q; format: physicochemical; settings: for q (H2O): pure water; for τD2O: D2O; for τH2O: H2O
Procedure: The q number in the absence and presence of CO32− was determined using TbIII analogues (5a′, 5b′, 5c′, and 11′). Given the similarities in chemistry amongst the lanthanides, TbIII luminescence is a convenient and established method for determining the coordination environment in corresponding GdIII chelates. The narrow […] emission at 543 nm and the relatively long lived 0.4 ms excited state lifetime for Tb(H2O)x facilitates accurate assessment of the inner-coordination sphere, differentiating between coordination of OH, OD, NH, and ND oscillators. 38 Luminescent decay curves were fit to the empirically derived Horrock's equation (Eq. 2). It was expected that the ortho position would have the lowest q in the presence of CO32−, creating a “dark” state with the lowest relaxivity.
The number of water molecules directly coordinated to the lanthanide center (q), was determined for each of the TbIII analogues 5a′-c′ (see Table 1), 10a′-d′ (Table 2), and 11′ in MilliQ water and MOPS/carbonate buffer (10 mm MOPS, 24 mm NaHCO3, pH 7.4).
The monoexponential fluorescence decay of an ≈1 mm solution of each complex was determined using a Hitachi F4500 fluorometer (Schaumburg, IL). An excitation wavelength of 308 nm and an emission wavelength of […] were used, and 25 scans were acquired and averaged for each solution. The averaged data was fit with a monoexponential decay function, and the time constant (t) for each solution was determined in triplicate. The fluorescence decay curves of the complexes were measured in both H2O and D2O, and in both buffer and deuterated buffer, obtained by lyophilizing and re-suspending the buffer in D2O three times (FIG. 17A-E). The q values were calculated using the empirically derived Horrock's equation for Tb(III) (Eq. 2): […]

[3] = Horrock's equation for TbIII, MOPS/CO32- buffer pH 7.4
[4] = Tb(III) analogues, emission 543 nm, ambient temperature
[5] = deuterated MOPS/CO32- buffer pH 7.4
[6] = 10a′-d′, Horrock's equation, MOPS/CO3^2− buffer pH 7.4
[7] = 10a′-d′, MOPS/CO3^2− buffer pH 7.4
[8] = 10a′-d′, deuterated MOPS/CO3^2− buffer pH 7.4
[9] = Tb(III) analogues 10a′-d′, emission 543 nm

T1 sequence (P00722 2-1024): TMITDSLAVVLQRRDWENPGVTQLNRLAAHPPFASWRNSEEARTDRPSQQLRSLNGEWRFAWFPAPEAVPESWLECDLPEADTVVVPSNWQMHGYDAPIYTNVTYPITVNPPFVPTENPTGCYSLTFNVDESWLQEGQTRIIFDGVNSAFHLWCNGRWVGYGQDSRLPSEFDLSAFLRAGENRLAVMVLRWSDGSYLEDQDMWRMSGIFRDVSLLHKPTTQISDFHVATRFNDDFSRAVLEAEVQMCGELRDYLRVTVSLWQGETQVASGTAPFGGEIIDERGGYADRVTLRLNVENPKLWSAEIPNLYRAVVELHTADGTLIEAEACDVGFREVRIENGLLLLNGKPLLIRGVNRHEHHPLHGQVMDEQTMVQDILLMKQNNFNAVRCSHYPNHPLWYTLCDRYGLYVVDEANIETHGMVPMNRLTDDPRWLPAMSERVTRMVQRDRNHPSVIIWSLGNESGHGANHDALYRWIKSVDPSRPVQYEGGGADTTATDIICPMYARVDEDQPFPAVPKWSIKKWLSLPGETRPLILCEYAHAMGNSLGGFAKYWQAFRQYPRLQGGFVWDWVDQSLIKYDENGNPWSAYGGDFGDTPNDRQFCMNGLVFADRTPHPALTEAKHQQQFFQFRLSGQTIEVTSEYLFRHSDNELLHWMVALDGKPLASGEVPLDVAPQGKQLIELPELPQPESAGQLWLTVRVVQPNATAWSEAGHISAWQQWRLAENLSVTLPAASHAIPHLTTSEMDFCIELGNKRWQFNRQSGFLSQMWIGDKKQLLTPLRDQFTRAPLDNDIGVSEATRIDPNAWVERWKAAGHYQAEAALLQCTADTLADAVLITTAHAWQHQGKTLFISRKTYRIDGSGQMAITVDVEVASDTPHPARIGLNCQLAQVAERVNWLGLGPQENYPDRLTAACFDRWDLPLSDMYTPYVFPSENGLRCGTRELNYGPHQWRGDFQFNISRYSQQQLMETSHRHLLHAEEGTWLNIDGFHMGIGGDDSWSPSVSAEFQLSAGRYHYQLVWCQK

Row | SMILES | Kcat (β-galactosidase) | Km (β-galactosidase) | q (buffer) [2, 6] | q (H2O) ([2]; 10a′-d′, Horrock's equation) | τHbuf [2, 7] | τDbuf [2, 8] | τD2O ([2]; Tb(III) analogues 10a′-d′) | τH2O [2, 9] | other results
1 | O=C([O-])CN1CCN(CCNC(=O)OCc2cc([N+](=O)[O-])ccc2O[C@@H]2O[C@H](CO)[C@H](O)[C@H](O)[C@H]2O)CCN(CC(=O)[O-])CCN(CC(=O)[O-])CC1.[Gd+3] [5a, Gadolinium(III)-1-(2-(2-(1-(4,7,10-triscarboxymethyl-(1,4,7,10tetraazacyclododecyl)))ethylcarbamoyloxymethyl)-4-nitrophenyl)-β-D-galactopyranose] | 637 +/− 21.9 S−1 | 272 µM |  |  |  |  |  |  | Δr1 relative to the cleaved complex 11 (percent change in relaxivity, dark to bright) [1]: negative
2 | O=C([O-])CN1CCN(CCNC(=O)OCc2cc([N+](=O)[O-])ccc2O[C@@H]2O[C@H](CO)[C@H](O)[C@H](O)[C@H]2O)CCN(CC(=O)[O-])CCN(CC(=O)[O-])CC1.[Tb+3] [5a′, Terbium(III)-1-(2-(2-(1-(4,7,10-triscarboxymethyl-(1,4,7,10tetraazacyclododecyl)))ethylcarbamoyloxymethyl)-4-nitrophenyl)-β-D-galactopyranose] |  |  |  |  |  |  |  |  | q (buffer) [2, 3]: 0.2; q (H2O) ([2]; Horrock's equation for TbIII): 1.1; τHbuf ([2]; MOPS/CO32- buffer pH 7.4): 1.7(6) ms; τD2O [2, 4]: 2.2(3) ms; τH2O [2, 4]: 1.2(8) ms; τDbuf [2, 5]: 2.2(0) ms
3 | O=C([O-])CN1CCN(CCNC(=O)OCc2ccc([N+](=O)[O-])c(O[C@@H]3O[C@H](CO)[C@H](O)[C@H](O)[C@H]3O)c2)CCN(CC(=O)[O-])CCN(CC(=O)[O-])CC1.[Gd+3] [5b, Gadolinium(III)-1-(5-(2-(1-(4,7,10-triscarboxymethyl-(1,4,7,10tetraazacyclododecyl)))ethylcarbamoyloxymethyl)-2-nitrophenyl)-β-D-galactopyranose] | 679 +/− 135.8 S−1 | 791 µM |  |  |  |  |  |  | Δr1 relative to the cleaved complex 11 (percent change in relaxivity, dark to bright) [1]: 26%
4 | O=[N+]([O-])c1ccc(O[C@@H]2O[C@H](CO)[C@H](O)[C@H](O)[C@H]2O)cc1 [PNPG, para-nitrophyenyl-[…]-galactoside, reference compound] | 276 +/− 16.9 S−1 | 61 µM |  |  |  |  |  |  | 
5 | O=C([O-])CN1CCN(CCNC(=O)OCc2ccc([N+](=O)[O-])c(O[C@@H]3O[C@H](CO)[C@H](O)[C@H](O)[C@H]3O)c2)CCN(CC(=O)[O-])CCN(CC(=O)[O-])CC1.[Tb+3] [5b′, Terbium(III)-1-(5-(2-(1-(4,7,10-triscarboxymethyl-(1,4,7,10tetraazacyclododecyl)))ethylcarbamoyloxymethyl)-2-nitrophenyl)-β-D-galactopyranose] |  |  |  |  |  |  |  |  | q (buffer) [2, 3]: 0; q (H2O) ([2]; Horrock's equation for TbIII): 0.4; τHbuf ([2]; MOPS/CO32- buffer pH 7.4): 1.4(2) ms; τD2O [2, 4]: 1.6(6) ms; τH2O [2, 4]: 1.3(0) ms; τDbuf [2, 5]: 1.5(4) ms
6 | CCOC(=O)CNc1cc(COC(=O)NCCN2CCN(CC(=O)[O-])CCN(CC(=O)[O-])CCN(CC(=O)[O-])CC2)ccc1O[C@@H]1O[C@H](CO)[C@H](O)[C@H](O)[C@H]1O.[Tb+3] [10a′, Terbium(III)-1-(4-(2-(1-(4,7,10-triscarboxymethyl-(1,4,7,10tetraazacyclododecyl)))ethylcarbamoyloxymethyl)-2-((2-ethoxy-2-oxoethyl)amino)phenyl)-β-D-galactopyranose] |  |  | 0.3 | 1.3 | 1.7(2) ms | 2.1(8) ms | 2.1(0) ms | 1.1(4) ms | 
7 | O=C([O-])CN1CCN(CCNC(=O)OCc2ccc(O[C@@H]3O[C@H](CO)[C@H](O)[C@H](O)[C@H]3O)c([N+](=O)[O-])c2)CCN(CC(=O)[O-])CCN(CC(=O)[O-])CC1.[Gd+3] [5c, Gadolinium(III)-1-(4-(2-(1-(4,7,10-triscarboxymethyl-(1,4,7,10tetraazacyclododecyl)))ethylcarbamoyloxymethyl)-2-nitrophenyl)-β-D-galactopyranose] | 765 +/− 37.8 S−1 | 129 µM |  |  |  |  |  |  | Δr1 relative to the cleaved complex 11 (percent change in relaxivity, dark to bright) [1]: negative
8 | CCOC(=O)CCCCCCCNc1cc(COC(=O)NCCN2CCN(CC(=O)[O-])CCN(CC(=O)[O-])CCN(CC(=O)[O-])CC2)ccc1O[C@@H]1O[C@H](CO)[C@H](O)[C@H](O)[C@H]1O.[Tb+3] [10d′, Terbium(III)-1-(4-(2-(1-(4,7,10-triscarboxymethyl-(1,4,7,10tetraazacyclododecyl)))ethylcarbamoyloxymethyl)-2-((8-ethoxy-8-oxooctyl)amino)phenyl)-β-D-galactopyranose] |  |  | 0.1 | 0.1 | 1.9(7) ms | 2.0(2) ms | 2.2(6) ms | 1.9(3) ms | 
9 | CCOC(=O)CCCNc1cc(COC(=O)NCCN2CCN(CC(=O)[O-])CCN(CC(=O)[O-])CCN(CC(=O)[O-])CC2)ccc1O[C@@H]1O[C@H](CO)[C@H](O)[C@H](O)[C@H]1O.[Tb+3] [10b′, Terbium(III)-1-(4-(2-(1-(4,7,10-triscarboxymethyl-(1,4,7,10tetraazacyclododecyl)))ethylcarbamoyloxymethyl)-2-((4-ethoxy-4-oxobutyl)amino)phenyl)-β-D-galactopyranose] |  |  | 0 | 0.5 | 1.8(9) ms | 1.8(8) ms | 2.2(6) ms | 1.6(3) ms | 
10 | CCOC(=O)CCCCCNc1cc(COC(=O)NCCN2CCN(CC(=O)[O-])CCN(CC(=O)[O-])CCN(CC(=O)[O-])CC2)ccc1O[C@@H]1O[C@H](CO)[C@H](O)[C@H](O)[C@H]1O.[Tb+3] [10c′, Terbium(III)-1-(4-(2-(1-(4,7,10-triscarboxymethyl-(1,4,7,10tetraazacyclododecyl)))ethylcarbamoyloxymethyl)-2-((6-ethoxy-6-oxohexyl)amino)phenyl)-β-D-galactopyranose] |  |  | 0.1 | 0.1 | 1.9(3) ms | 2.2(6) ms | 2.2(9) ms | 1.8(9) ms | 
11 | O=C([O-])CN1CCN(CCNC(=O)OCc2ccc(O[C@@H]3O[C@H](CO)[C@H](O)[C@H](O)[C@H]3O)c([N+](=O)[O-])c2)CCN(CC(=O)[O-])CCN(CC(=O)[O-])CC1.[Tb+3] [5c′, Terbium(III)-1-(4-(2-(1-(4,7,10-triscarboxymethyl-(1,4,7,10tetraazacyclododecyl)))ethylcarbamoyloxymethyl)-2-nitrophenyl)-β-D-galactopyranose] |  |  |  |  |  |  |  |  | q (buffer) [2, 3]: 0; q (H2O) ([2]; Horrock's equation for TbIII): 0.7; τHbuf ([2]; MOPS/CO32- buffer pH 7.4): 1.0(2) ms; τD2O [2, 4]: 1.1(1) ms; τH2O [2, 4]: 0.8(9) ms; τDbuf [2, 5]: 1.0(7) ms
12 | O=[N+]([O-])c1ccccc1O[C@@H]1O[C@H](CO)[C@H](O)[C@H](O)[C@H]1O [ONPG, ortho-nitrophyenyl-[…]-galactoside, reference compound] | 600 +/− 29.7 S−1 | 120 µM |  |  |  |  |  |  | 

Reference: patent US12508328B2, “Bio-activated reporters to visualize, in real time, specific gene therapy products” (Northwestern University, priority 2019, dated 2025)
